In patent publication US7138361B2, “Herbicidal heterocycles” (E. I. du Pont de Nemours and Company, priority 2000, dated 2006):

Columns and labels:
Format in all cases: in vivo
[1] = test system: Surinam grass (Brachiaria decumbens); assay: Test B postemergence
Outline: (§1)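 Visual injury scores, 0 = no effect to 100 = complete control, assigned against controls after 13 to 15 days in the greenhouse. Compounds formulated in non-phytotoxic solvent plus surfactant and applied to soil after planting (pre) or onto foliage of 1- to 4-leaf plants (post).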

[2] = test system: barnyardgrass (Echinochloa crus-galli); assay: Test B postemergence
Outline: as §1

[3] = test system: blackgrass (Alopecurus myosuroides); assay: Test B postemergence
Outline: as §1

[4] = test system: cocklebur (Xanthium strumarium); assay: Test B postemergence
Outline: as §1

corn (Zea mays) [5] = assay: Test B postemergence
Outline: as §1

[6] = test system: crabgrass (Digitaria sanguinalis); assay: Test B postemergence; conditions: Rate 125 g/ha, scale 0 to 100, 0 no effect, 100 complete control
Outline: as §1

[7] = test system: giant foxtail (Setaria faberii); assay: Test B postemergence; conditions: Rate 125 g/ha, scale 0 to 100, 0 no effect, 100 complete control
Outline: as §1

[8] = test system: lambsquarters (Chenopodium album); assay: Test B postemergence; conditions: Rate 125 g/ha, scale 0 to 100, 0 no effect, 100 complete control
Outline: as §1

[9] = test system: morning glory (Ipomoea hederacea); assay: Test B postemergence; conditions: Rate 125 g/ha, scale 0 to 100, 0 no effect, 100 complete control
Outline: as §1

[10] = test system: pigweed (Amaranthus retroflexus); assay: Test B postemergence; conditions: Rate 125 g/ha, scale 0 to 100, 0 no effect, 100 complete control
Outline: as §1

[11] = test system: velvetleaf (Abutilon theophrasti); assay: Test B postemergence; conditions: Rate 125 g/ha, scale 0 to 100, 0 no effect, 100 complete control
Outline: as §1

[12] = test system: wheat (Triticum aestivum); assay: Test B postemergence; conditions: Rate 125 g/ha, scale 0 to 100, 0 no effect, 100 complete control
Outline: as §1

wild oat (Avena fatua) = assay: Test B postemergence; conditions: Rate 125 g/ha, scale 0 to 100, 0 no effect, 100 complete control
Outline: as §1

[13] = test system: Surinam grass (Brachiaria decumbens); assay: Test B preemergence
Outline: as §1

[14] = test system: barnyardgrass (Echinochloa crus-galli); assay: Test B preemergence
Outline: as §1

[15] = test system: cocklebur (Xanthium strumarium); assay: Test B preemergence
Outline: as §1

corn (Zea mays) [16] = assay: Test B preemergence
Outline: as §1

[17] = test system: crabgrass (Digitaria sanguinalis); assay: Test B preemergence
Outline: as §1

[18] = test system: giant foxtail (Setaria faberii); assay: Test B preemergence
Outline: as §1

[19] = test system: lambsquarters (Chenopodium album); assay: Test B preemergence
Outline: as §1

[20] = test system: morning glory (Ipomoea hederacea); assay: Test B preemergence
Outline: as §1

[21] = test system: pigweed (Amaranthus retroflexus); assay: Test B preemergence
Outline: as §1

rice (Oryza saliva) = assay: Test B preemergence
Outline: as §1

[22] = test system: velvetleaf (Abutilon theophrasti); assay: Test B preemergence
Outline: as §1

[23] = test system: barnyardgrass (Echinochloa crus-galli); assay: Test C flooded paddy test; conditions: for Barnyardgrass plant response rating: Flooded Paddy, scale 0 to 100, 0 no effect, 100 complete control
Outline: (§2)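 Greenhouse-maintained for 12 to 14 days after treatment, the paddy plants (2-leaf stage at application) were scored visually against controls. A score of 0 denotes no effect and a score of 100 denotes complete control.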

[24] = test system: duck salad (Heteranthera limosa); assay: Test C flooded paddy test; conditions: for Ducksalad plant response rating: Flooded Paddy, scale 0 to 100, 0 no effect, 100 complete control
Outline: as §2

Sunflower = assay: Test C preemergence; conditions: Rate 500 g/ha, visual evaluation after 12 to 14 days
[25] = Rate 125 g/ha, scale 0 to 100, 0 no effect, 100 complete control
[26] = Rate 500 g/ha, scale 0 to 100, 0 is no effect, 100 is complete control, 13 to 15 days
[27] = Preemergence, Rate 500 g/ha, scale 0 to 100, 0 no effect, 100 complete control
[28] = preemergence, Rate 125 g/ha, scale of 0 to 100 where 0 is no effect and 100 is complete control, 13 to 15 days
[29] = flooded paddy test, Rate 125 g/ha, scale 0 to 100 (0 no effect, 100 complete control)
[30] = flooded paddy test, Rate 16 g/ha, visually evaluated after 12 to 14 days, 0 = no effect, 100 = complete control
[31] = flooded paddy test, Rate 62 g/ha, visually evaluated after 12 to 14 days, 0 = no effect, 100 = complete control
[32] = flooded paddy test, under head Rate 16 g/ha, (own rate not given), after 12 to 14 days

CCOc1cccc(N2CCC(n3ccc(C(C)(C)C)n3)C2=O)c1 (centres unmarked) [Compound 130]
Plant response rating, Surinam grass [1, 25]: 0 | Plant response rating, Surinam grass [1, 26]: 40 | Plant response rating, Barnyardgrass [2, 25]: 0 | Plant response rating, Barnyardgrass [2, 26]: 90 | Plant response rating, Blackgrass [3, 25]: 0 | Plant response rating, Blackgrass [3, 26]: 20 | Plant response rating, Cocklebur [4, 25]: 20 | Plant response rating, Cocklebur [4, 26]: 50 | Plant response rating, Corn (corn (Zea mays) [5]; [25]): 0 | Plant response rating, Corn (corn (Zea mays) [5]; [26]): 0 | Plant response rating, Crabgrass [6]: 0 | Plant response rating, Foxtail, Giant [7]: 0 | Plant response rating, Lambsquarters [8]: 90 | Plant response rating, Morningglory [9]: 70 | Plant response rating, Pigweed [10]: 80 | Plant response rating, Velvetleaf [11]: 0 | Plant response rating, Wheat [12]: 0 | Plant response rating, Wild Oat (wild oat (Avena fatua)): 0 | Plant response rating, Surinam grass [13, 27]: 100 | Plant response rating, Surinam grass [13, 28]: 100 | Plant response rating, Barnyardgrass [14, 27]: 100 | Plant response rating, Barnyardgrass [14, 28]: 100 | Plant response rating, Cocklebur [15, 27]: 50 | Plant response rating, Cocklebur [15, 28]: 0 | Plant response rating, Corn (corn (Zea mays) [16]; [27]): 70 | Plant response rating, Corn (corn (Zea mays) [16]; [28]): 50 | Plant response rating, Crabgrass [17, 27]: 100 | Plant response rating, Crabgrass [17, 28]: 100 | Plant response rating, Foxtail, Giant [18, 27]: 100 | Plant response rating, Foxtail, Giant [18, 28]: 100 | Plant response rating, Lambsquarters [19, 27]: 100 | Plant response rating, Lambsquarters [19, 28]: 100 | Plant response rating, Morningglory [20, 27]: 100 | Plant response rating, Morningglory [20, 28]: 50 | Plant response rating, Pigweed [21, 27]: 100 | Plant response rating, Pigweed [21, 28]: 100 | Plant response rating, Rice (rice (Oryza saliva); [27]): 100 | Plant response rating, Rice (rice (Oryza saliva); [28]): 100 | Plant response rating, Velvetleaf [22, 27]: 50 | Plant response rating, Velvetleaf [22, 28]: 0 | Barnyardgrass plant response rating ([23]; Rate 250 g/ha): 100 | Barnyardgrass plant response rating ([23]; Rate 500 g/ha): 100 | Plant response rating, Barnyardgrass [23, 29]: 100 | Plant response rating (scale 0 to 100), Barnyardgrass [23, 30]: 70 | Plant response rating (scale 0 to 100), Barnyardgrass [23, 31]: 90 | Plant response rating (scale 0 to 100), Barnyardgrass [23, 32]: 50 | Ducksalad plant response rating ([24]; Rate 250 g/ha): 90 | Ducksalad plant response rating ([24]; Rate 500 g/ha): 100 | Plant response rating, Ducksalad [24, 29]: 90 | Plant response rating (scale 0 to 100), Ducksalad [24, 30]: 70 | Plant response rating (scale 0 to 100), Ducksalad [24, 31]: 90 | Plant response rating (scale 0 to 100), Ducksalad [24, 32]: 20 | Plant response rating (0 to 100), Sunflower (Sunflower): 70
